Assay results reported in PMC8414367, “(E)-7-Ethylidene-lithocholic Acid (7-ELCA) Is a Potent Dual Farnesoid X Receptor (FXR) Antagonist and GPBAR1 Agonist Inhibiting FXR-Induced Gene Expression in Hepatocytes and Stimulating Glucagon-like Peptide-1 Secretion From Enteroendocrine Cells” (Frontiers in Pharmacology, 2021).

Legend:
GPBAR1 Ser270Gly = molecular target: T1, GPBAR1 Ser270Gly (Homo sapiens, UniProt Q8TDU6, S270G); assay: CRE-luc reporter assay with mutated GPBAR1 variant in HepG2 cells; assay type: cell-based
T1 construct: expressed in transfected cells; host or cells: HepG2
T1 sequence (Q8TDU6 whole entry S270G): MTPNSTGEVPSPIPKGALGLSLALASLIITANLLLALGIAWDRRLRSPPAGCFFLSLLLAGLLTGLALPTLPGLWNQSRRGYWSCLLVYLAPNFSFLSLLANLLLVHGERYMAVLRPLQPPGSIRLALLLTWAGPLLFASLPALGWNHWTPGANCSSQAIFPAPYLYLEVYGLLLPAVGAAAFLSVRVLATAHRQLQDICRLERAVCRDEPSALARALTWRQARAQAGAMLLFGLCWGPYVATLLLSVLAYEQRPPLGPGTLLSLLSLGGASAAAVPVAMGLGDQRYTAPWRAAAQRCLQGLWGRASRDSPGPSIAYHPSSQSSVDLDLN

[1] = molecular target: pregnane X receptor (PXR) (Homo sapiens, UniProt O75469); assay: Nuclear receptor specificity luciferase reporter assay in HepG2 cells
pregnane X receptor (PXR), sequence (O75469 whole entry): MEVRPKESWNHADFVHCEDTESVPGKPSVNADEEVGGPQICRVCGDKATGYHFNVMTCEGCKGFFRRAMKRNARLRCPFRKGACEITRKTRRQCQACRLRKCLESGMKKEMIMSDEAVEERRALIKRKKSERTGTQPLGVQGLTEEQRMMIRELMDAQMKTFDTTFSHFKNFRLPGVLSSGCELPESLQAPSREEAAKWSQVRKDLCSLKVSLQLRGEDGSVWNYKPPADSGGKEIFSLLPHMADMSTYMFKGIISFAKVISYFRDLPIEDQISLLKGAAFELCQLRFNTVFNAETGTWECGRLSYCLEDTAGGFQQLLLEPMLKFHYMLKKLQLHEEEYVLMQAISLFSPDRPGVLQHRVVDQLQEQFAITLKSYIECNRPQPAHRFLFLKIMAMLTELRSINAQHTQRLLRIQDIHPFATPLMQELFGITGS
Protocol: (§1) For transient transfection, HepG2 cells were seeded at the density of 40,000 cells/cm^2. […] The next day, cells were challenged with tested ligands in indicated concentrations for 5 h. […] All the other transient transfection reporter gene assays were performed with Lipofectamine® 3000 (ThermoFisher Scientific). Briefly, cells were transfected with 150 ng/well luciferase reporter gene constructs (p(DR3)3-luc, SHP-luc, p3A4-luc, pTAT-(GRE)2-TK-luc, p2B6-luc, pGL4.35[luc2P⁄9XGAL4UAS⁄Hygro]), FXRE-luc together with 100 ng/well of the corresponding full-length fragment nuclear receptor expression vectors (pSG5-hVDR, pSG5-hFXR, pSG5-hRXRα, pSG5-hPXR, CAR3 variant) or the ligand binding domains of human, pCMX-GAL4-hFXR, pCMX-GA4L-LXRα, pCMX-GA4L-LXRα, pCMX-GA4L-TRα, pCMX-GA4L-PPARα, pCMX-GAL4-PPARγ, pCMX-GAL4-PPARδ) and 30 ng/well of pRL-TK Renilla luciferase vector 24 h prior to the treatment. […] The firefly luciferase activity was measured using the Dual Luciferase® Reporter Assay System (Promega) and normalized to Renilla luciferase activity. Experiments in an agonistic mode were performed with OCA, CDCA or tested compounds (all compounds at 10 μM). […] EC50 and IC50 were calculated using GraphPad PRISM ver. […]
(§2) Data were normalized to Renilla luciferase activity and are expressed as fold activation relative to control (nontreated, NT) cells. […]

LXRβ = LXRβ (Homo sapiens, UniProt P55055); assay: as above
LXRβ, sequence (P55055 222-460 limits assumed): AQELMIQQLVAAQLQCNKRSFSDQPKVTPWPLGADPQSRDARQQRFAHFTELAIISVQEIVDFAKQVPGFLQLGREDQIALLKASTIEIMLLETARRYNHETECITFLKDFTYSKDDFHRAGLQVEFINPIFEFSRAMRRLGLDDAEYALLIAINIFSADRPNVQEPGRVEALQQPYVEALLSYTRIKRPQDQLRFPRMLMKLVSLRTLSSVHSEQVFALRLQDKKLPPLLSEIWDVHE
Protocol: as §1, §2

SMILES: C/C=C1\C[C@@H]2C[C@H](O)CC[C@]2(C)[C@H]2CC[C@]3(C)[C@@H]([C@H](C)CCC(=O)O)CC[C@H]3[C@H]12 [2a, (E)-3α-Hydroxy-7-ethylidene-5β-cholan-24-oic acid]
- CRE-luc activation via GPBAR1 Ser270Gly (GPBAR1 Ser270Gly): partially preserved
- antagonism of PXR activation by model ligand ([1]; 10 µM, with rifampicin 1 µM): did not antagonize
- activation of PXR ([1]; agonistic assay, 24 h): did not activate
- antagonism of LXRβ activation by model ligand (LXRβ; 10 µM, with GW3965 1 µM): did not antagonize
- activation of LXRβ (LXRβ; agonistic assay, 24 h): did not activate
